Data published in ChEMBL document CHEMBL4138232, “O2-(2,4-dinitrophenyl)diazeniumdiolates derivatives: Design, synthesis, cytotoxic evaluation and reversing MDR in MCF-7/ADR cells” (Eur J Med Chem, 2018).

Tests used:
HCT-116 [1] = assay: Cytotoxicity against human HCT116 cells overexpressing GST-Pi assessed as inhibition of cell viability at 10 uM after 48 hrs by MTT assay relative to control; assay type: functional; conditions: HCT-116, 48 h
MDA-MB-231 = assay: Antiproliferative activity against human MDA-MB-231 cells after 48 hrs by MTT assay relative to control; assay type: functional, cell-based; conditions: MDA-MB-231, 48 h
HCT-116 [2] = assay: Antiproliferative activity against human HCT116 cells after 48 hrs by MTT assay relative to control; assay type: functional, cell-based; conditions: HCT-116, 48 h
A549 = assay: Antiproliferative activity against human A549 cells after 48 hrs by MTT assay relative to control; assay type: functional, cell-based; conditions: A549, 48 h
U2OS = assay: Antiproliferative activity against human U2OS cells after 48 hrs by MTT assay relative to control; assay type: functional, cell-based
MCF-10A = assay: Antiproliferative activity against human MCF10A cells after 48 hrs by MTT assay relative to control; assay type: cell-based
[3] = Selectivity ratio of IC50 for human MCF10A cells to IC50 for human MDA-MB-231 cells; assay type: toxicity; conditions: MCF10A cells versus MDA-MB-231 cells, read-out: Ratio IC50
[4] = Selectivity ratio of IC50 for human HCT116 cells to IC50 for human MDA-MB-231 cells; assay type: functional
[5] = Selectivity ratio of IC50 for human A549 cells to IC50 for human MDA-MB-231 cells; assay type: functional
[6] = Selectivity ratio of IC50 for human U2OS cells to IC50 for human MDA-MB-231 cells; assay type: functional
[7] = target: T1, Glutathione S-transferase P (Homo sapiens, UniProt P09211); assay: Prodrug activation in human HCT116 cells assessed as GST-Pi-mediated NO release at 5 uM by nitrate reductase assay; assay type: cell-based
T1 sequence (P09211 whole entry): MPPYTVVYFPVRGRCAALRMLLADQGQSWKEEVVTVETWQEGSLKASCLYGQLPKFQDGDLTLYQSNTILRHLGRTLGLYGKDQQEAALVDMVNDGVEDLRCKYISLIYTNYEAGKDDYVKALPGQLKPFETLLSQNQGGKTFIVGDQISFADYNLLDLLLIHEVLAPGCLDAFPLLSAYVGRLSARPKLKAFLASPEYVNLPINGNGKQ

Homo sapiens = species: Homo sapiens; assay: Inhibition of MDR in human MCF7/ADR cells assessed as potentiation of adriamycin-induced antiproliferative activity by measuring fold reduction in adriamycin IC50 at 10 uM after 48 hrs by MTT assay; assay type: cell-based
[8] = Cytotoxicity against ADR-sensitive human MCF7 cells assessed as inhibition of cell viability at 10 uM after 48 hrs by MTT assay relative to control; assay type: cell-based; conditions: read-out: INH
MCF7 = assay: Cytotoxicity against ADR-sensitive human MCF7 cells assessed as inhibition of cell viability after 48 hrs by MTT assay; assay type: cell-based; conditions: MCF7, 48 h
[9] = target: T1, Glutathione S-transferase P; assay: Prodrug activation in human HCT116 cells assessed as GST-Pi-mediated NO release at 5 uM after 24 hrs in presence of NO scavenger carboxy-PTIO by nitrate reductase assay; assay type: cell-based
[10] = target: T1, Glutathione S-transferase P; assay: Prodrug activation in human HCT116 cells assessed as GST-Pi-mediated NO release at 5 uM after 24 hrs in presence of GST-Pi inhibitor etacrynic acid by nitrate reductase assay; assay type: cell-based
HCT-116 [11] = assay: Growth inhibition of human HCT116 cells at 5 uM after 24 hrs by MTT assay relative to control; assay type: functional; conditions: HCT-116, 24 h, read-out: GI
[12] = target: T1, Glutathione S-transferase P; assay: Prodrug activation in human HCT116 cells assessed as GST-Pi-mediated NO release at 5 uM after 24 hrs by nitrate reductase assay; assay type: cell-based
HCT-116 [13] = assay: Growth inhibition of human HCT116 cells at 5 uM after 24 hrs in presence of NO scavenger carboxy-PTIO by MTT assay relative to control; assay type: functional; conditions: HCT-116, 24 h, read-out: GI
[14] = Glutathione reactivity in pH 7.4 PBS buffer assessed as parent compound remaining at 0.1 mM after 1 hr in presence of 2 mM GSH by HPLC analysis; assay type: physicochemical; conditions: PBS buffer with 2 mM glutathione (GSH), read-out: Stability
HCT-116 [15] = assay: Growth inhibition of human HCT116 cells at 5 uM after 24 hrs in presence of GST-Pi inhibitor etacrynic acid by MTT assay relative to control; assay type: functional; conditions: HCT-116, 24 h, read-out: GI

| IC50 (MDA-MB-231) | IC50 (HCT-116 [2]) | IC50 (A549) | IC50 (U2OS) | Drug metabolism [7] | Drug metabolism [9] | Drug metabolism [10] | Drug metabolism [12] | SMILES | inhibition at 10 µM (HCT-116 [1]) | IC50 (MCF-10A) | selectivity ratio [3] | Ratio IC50 [4] | Ratio IC50 [5] | Ratio IC50 [6] | fold change (FC) (Homo sapiens) | cytotoxicity at 48 h, 10 µM [8] | IC50 (MCF7) | other results |
| --- | --- | --- | --- | --- | --- | --- | --- | --- | --- | --- | --- | --- | --- | --- | --- | --- | --- | --- |
| 2.11 µM | 5.58 µM | 2.86 µM | 3.69 µM | Dose-dependent effect |  |  |  | COc1ccc(C2CC(c3cccc(Oc4cc(O/N=[N+](\[O-])N5CCOCC5)c([N+](=O)[O-])cc4[N+](=O)[O-])c3)=NN2C(C)=O)cc1 (stereo unspecified) | 79.9% | 12.9 µM | 6.1 | 2.6 | 1.3 | 1.7 | 56.6 | 21.2% | 31.9 µM |  |
| 3.85 µM | 4.44 µM | 1.87 µM | 3.86 µM | Dose-dependent effect | Metabolite_Notdetected | Metabolite_Notdetected |  | CC(=O)N1N=C(c2cccc(Oc3cc(O/N=[N+](\[O-])N4CCOCC4)c([N+](=O)[O-])cc3[N+](=O)[O-])c2)CC1c1ccc(C)cc1 (stereo unspecified) | 77.8% | 11.9 µM | 3.1 | 1.1 | 0.5 | 1 | 49.7 | 20.2% | 21.6 µM |  |
| 0.94 µM | 1.06 µM | 1.15 µM | 7.64 µM |  | Metabolite_Notdetected | Metabolite_Notdetected | Metabolite_Detected | COc1cc(C2CC(c3cccc(Oc4cc(O/N=[N+](\[O-])N5CCCCC5)c([N+](=O)[O-])cc4[N+](=O)[O-])c3)=NN2C(C)=O)cc(OC)c1OC (stereo unspecified) | 80.8% | 10.5 µM | 11.2 | 1.1 | 1.2 | 8.1 | 75.3 | 26.4% | 17.7 µM | inhibition of growth at 5 µM (HCT-116 [11]): 74.9%; inhibition of growth at 5 µM (HCT-116 [13]): 7.1%; remaining at 1 h, 100 µM [14]: 80% |
| 0.66 µM | 1.27 µM | 1.54 µM | 2.46 µM | Dose-dependent effect | Metabolite_Notdetected | Metabolite_Notdetected | Metabolite_Detected | COc1ccc(C2CC(c3cccc(Oc4cc(O/N=[N+](\[O-])N5CCOCC5)c([N+](=O)[O-])cc4[N+](=O)[O-])c3)=NN2C(C)=O)cc1OC (stereo unspecified) | 81.2% | 10.1 µM | 15.3 | 1.9 | 2.3 | 3.7 | 14.3 | 13% | 22.7 µM |  |
| 1.44 µM | 6.46 µM | 6.11 µM | 6.13 µM | Dose-dependent effect |  |  |  | COc1cc(C2CC(c3cccc(Oc4cc(O/N=[N+](\[O-])N5CCOCC5)c([N+](=O)[O-])cc4[N+](=O)[O-])c3)=NN2C(C)=O)cc(OC)c1OC (stereo unspecified) | 76.2% | 59.4 µM | 41.2 | 6.5 | 4.2 | 4.2 | 1.53 | 13.3% | 44.3 µM |  |
| 5.68 µM | 4.14 µM | 4.7 µM | 7.49 µM |  | Metabolite_Notdetected | Metabolite_Notdetected |  | COc1ccc(C2CC(c3cccc(Oc4cc(O/N=[N+](\[O-])N5CCCCC5)c([N+](=O)[O-])cc4[N+](=O)[O-])c3)=NN2C(C)=O)cc1 (stereo unspecified) | 80.4% | 46.9 µM | 8.2 | 0.7 | 1.5 | 1.7 | 61.9 | 15.1% | 27.6 µM | inhibition of growth at 5 µM (HCT-116 [11]): 67.9%; inhibition of growth at 5 µM (HCT-116 [15]): 14.8% |
| 2.9 µM | 2.7 µM | 1.97 µM | 2.46 µM | Dose-dependent effect | Metabolite_Notdetected | Metabolite_Notdetected |  | CC(=O)N1N=C(c2cccc(Oc3cc(O/N=[N+](\[O-])N4CCOCC4)c([N+](=O)[O-])cc3[N+](=O)[O-])c2)CC1c1ccc(N(C)C)cc1 (stereo unspecified) | 78.3% | 16.4 µM | 5.6 | 0.9 | 0.7 | 0.8 | 33.4 | 21.9% | 22 µM |  |
| 4.4 µM | 1.86 µM | 1.46 µM | 2.19 µM | Dose-dependent effect | Metabolite_Notdetected | Metabolite_Notdetected | Metabolite_Detected | CCCCOc1ccc(C2CC(c3cccc(Oc4cc(O/N=[N+](\[O-])N5CCOCC5)c([N+](=O)[O-])cc4[N+](=O)[O-])c3)=NN2C(C)=O)cc1OC (stereo unspecified) | 75.7% | 15.2 µM | 3.4 | 0.4 | 0.3 | 0.5 | 63 | 23.6% | 19.2 µM |  |
| 4.57 µM | 1.3 µM | 7.31 µM | 9.43 µM |  | Metabolite_Notdetected | Metabolite_Notdetected | Metabolite_Detected | CC(=O)N1N=C(c2cccc(Oc3cc(O/N=[N+](\[O-])N4CCCCC4)c([N+](=O)[O-])cc3[N+](=O)[O-])c2)CC1c1ccc(C)cc1 (stereo unspecified) | 75.9% | 70.9 µM | 15.5 | 0.3 | 1.6 | 2.1 | 18 | 5.16% | 22.8 µM |  |
